According to patent US20140228325A1, “ALKENE DERIVATIVES AS SPHINGOSINE 1-PHOSPHATE (S1P) RECEPTOR MODULATORS” (Allergan, Inc., priority 2013, published 2014):

The molecules below were run against T1, human S1P1 receptor (Homo sapiens, UniProt P21453) (assay: GTP γ35S binding assay for S1P1 activity). Details: membranes of cells stably expressing the S1P1 receptor, test concentrations 0.08 to 5,000 nM, 30 min at 25° C.
T1 construct: expressed in transfected cells; membranes used
Assay type: biochemical
Method: Compounds were synthesized and tested for S1P1 activity using the GTP γ^35S binding assay. These compounds may be assessed for their ability to activate or block activation of the human S1P1 receptor in cells stably expressing the S1P1 receptor. GTP γ^35S binding was measured in the medium containing (mM) HEPES 25, pH 7.4, MgCl2 10, NaCl 100, dithitothreitol 0.5, digitonin 0.003%, 0.2 nM GTP γ^35S, and 5 μg membrane protein in a volume of 150 μl. Test compounds were included in the concentration range from 0.08 to 5,000 nM unless indicated otherwise. Membranes were incubated with 100 μM 5′-adenylylimmidodiphosphate for 30 min, and subsequently with 10 μM GDP for 10 min on ice. Drug solutions and membrane were mixed, and then reactions were initiated by adding GTP γ^35S and continued for 30 min at 25° C. Reaction mixtures were filtered over Whatman GF/B filters under vacuum, and washed three times with 3 mL of ice-cold buffer (HEPES 25, pH7.4, MgCl2 10 and NaCl 100). Filters were dried and mixed with scintillant, and counted for ^35S activity using a β-counter. Agonist-induced GTP γ^35S binding was obtained by subtracting that in the absence of agonist. Binding data were analyzed using a non-linear regression method. In case of antagonist assay, the reaction mixture contained 10 nM S1P in the presence of test antagonist at concentrations ranging from 0.08 to 5000 nM.
Activity potency: S1P1 receptor from GTP γ^35S: nM, (EC50),

T1 sequence (P21453 whole entry): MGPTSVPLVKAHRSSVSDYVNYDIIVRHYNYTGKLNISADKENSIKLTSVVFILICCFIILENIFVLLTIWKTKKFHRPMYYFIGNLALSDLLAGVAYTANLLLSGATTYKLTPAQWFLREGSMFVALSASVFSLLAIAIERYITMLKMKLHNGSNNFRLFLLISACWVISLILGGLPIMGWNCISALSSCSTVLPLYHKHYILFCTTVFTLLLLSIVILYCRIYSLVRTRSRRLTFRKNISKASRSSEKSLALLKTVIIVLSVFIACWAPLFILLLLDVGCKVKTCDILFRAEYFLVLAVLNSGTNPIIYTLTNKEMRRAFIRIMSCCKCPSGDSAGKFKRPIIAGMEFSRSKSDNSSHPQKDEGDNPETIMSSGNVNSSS

| EC50 | SMILES |
| --- | --- |
| 0.00965 µM | Cc1ccc(/C=C(\CCCOc2ccc(CNCCCP(=O)(O)O)cc2)c2cccc(Cl)c2)cc1C [Compound 1, {3-[(4-{[(4E)-4-(3-Chlorophenyl)-5-(3,4-dimethylphenyl)pent-4-en-1-yl]oxy}benzyl)amino]propyl}phosphonic acid] |
| 0.0732 µM | Cc1ccc(/C=C(\CCCOc2ccc(CNCCC(=O)O)cc2)c2cccc(Cl)c2)cc1C [Compound 2, 3-[(4-{[(4E)-4-(3-Chlorophenyl)-5-(3,4-dimethylphenyl)pent-4-en-1-yl]oxy}benzyl)amino]propanoic acid] |
| 0.0519 µM | Cc1ccc(/C=C(\CCCOc2ccc(CNCCC(=O)O)cc2)c2cc(F)cc(F)c2)cc1C [Compound 3, 3-[(4-{[(4E)-4-(3,5-Difluorophenyl)-5-(3,4-dimethylphenyl)pent-4-en-1-yl]oxy}benzyl)amino]propanoic acid] |
| 0.00784 µM | Cc1ccc(/C=C(\CCCOc2ccc(CNCCCP(=O)(O)O)cc2)c2cc(F)cc(F)c2)cc1C [Compound 4, {3-[(4-{[(4E)-4-(3,5-Difluorophenyl)-5-(3,4-dimethylphenyl)pent-4-en-1-yl]oxy}benzyl)amino]propyl}phosphonic acid] |
| 0.45 µM | Cc1ccc(/C=C(\CCC[S+]([O-])c2ccc(CNCCC(=O)O)cc2)c2cccc(Cl)c2)cc1C (centres unmarked) [Compound 5, 3-[(4-{[(4E)-4-(3-Chlorophenyl)-5-(3,4-dimethylphenyl)pent-4-en-1-yl]sulfinyl}benzyl)amino]propanoic acid] |
| 0.111 µM | Cc1ccc(/C=C(\CCC[S+]([O-])c2ccc(CNCCC(=O)O)cc2)c2cc(F)cc(F)c2)cc1C (centres unmarked) [Compound 7, 3-[(4-{[(4E)-4-(3,5-Difluorophenyl)-5-(3,4-dimethylphenyl)pent-4-en-1-yl]sulfinyl}benzyl)amino]propanoic acid] |
| 0.0102 µM | Cc1ccc(/C=C(\CCCSc2ccc(CNCCC(=O)O)cc2)c2cc(F)cc(F)c2)cc1C [Compound 8, 3-[(4-{[(4E)-4-(3,5-Difluorophenyl)-5-(3,4-dimethylphenyl)pent-4-en-1-yl]thio}benzyl)amino]propanoic acid] |
| 0.639 µM | Cc1ccc(/C=C(\CCCCSc2ccc(CNCCC(=O)O)cc2)c2cc(F)cc(F)c2)cc1C [Compound 9, 3-[(4-{[(5E)-5-(3,5-Difluorophenyl)-6-(3,4-dimethylphenyl)hex-5-en-1-yl]thio}benzyl)amino]propanoic acid] |
